In this assay the test system is MM.1S cells. Description: Proliferation inhibition (IC50) in MM.1S cells, cell viability assay. As to conditions: Homo sapiens, MM1.S, 72 h, read-out: IC50 (nM), proliferation inhibitory activity of MM.1S cells (half inhibitory concentration).
`O=C1CCC(N2C(=O)c3cccc(SCc4ccc(CCCN5CCOCC5)cc4)c3C2=O)C(=O)N1` (stereo not shown) [SIAIS1227091, 2-(2,6-dioxopiperidin-3-yl)-4-((4-(3-morpholinopropyl)benzyl)thio) isoindoline-1,3-dione]: the IC50 was found to be 2 nM.

As for `CCN(CC)CCc1ccc(CSc2cccc3c2CN(C2CCC(=O)NC2=O)C3=O)cc1` (stereo not shown) [SIAIS1227097, 3-(4-((4-(2-(diethylamino)ethyl)benzyl)thio)-1-oxoisoindolin-2-yl)piperidine-2,6-dione], the IC50 is 0.163 nM. To `CN1CCN(CCc2ccc(CSc3cccc4c3CN(C3CCC(=O)NC3=O)C4=O)cc2)CC1` (stereo not shown) [SIAIS1227099, 3-(4-((4-(2-(4-methylpiperazin-1-yl)ethyl)benzyl)thio)-1-oxoisoindolin-2-yl)piperidine-2,6-dione] belongs 0.311 nM; to `CC1(C)CCC(NCCc2ccc(CSc3cccc4c3CN(C3CCC(=O)NC3=O)C4=O)cc2)CC1` (stereo not shown) [SIAIS1227103, 3-(4-((4-(2-((4,4-dimethylcyclohexyl)amino)ethyl)benzyl)thio)-1-oxoisoindolin-2-yl)piperidine-2,6-dione], 0.02 nM.

For the molecule `CC1(C)CCC(NCc2ccc(CSc3cccc4c3CN(C3CCC(=O)NC3=O)C4=O)cc2)CC1` (stereo not shown) [SIAIS1227105, 3-(4-((4-(((4,4-dimethylcyclohexyl)amino)methyl)benzyl)thio)-1-oxoisoindolin-2-yl)piperidine-2,6-dione], the IC50 is 0.05 ± 0.01 nM. The figure for `CC(C)(C)NCc1ccc(CSc2cccc3c2CN(C2CCC(=O)NC2=O)C3=O)cc1` (stereo not shown) [SIAIS1227107, 3-(4-((4-((tert-butylamino)methyl)benzyl)thio)-1-oxoisoindolin-2-yl)piperidine-2,6-dione] is 0.27 ± 0.07 nM; for `O=C1CCC(N2Cc3c(SCc4ccc(CN5CCCCCCC5)cc4)cccc3C2=O)C(=O)N1` (stereo not shown) [SIAIS1227109, 3-(4-((4-(azocan-1-ylmethyl)benzyl)thio)-1-oxoisoindolin-2-yl)piperidine-2,6-dione] it is 0.03 ± 0.004 nM; for `CC1(C)CCN(Cc2ccc(CSc3cccc4c3CN(C3CCC(=O)NC3=O)C4=O)cc2)CC1` (stereo not shown) [SIAIS1227113, 3-(4-((4-((4,4-dimethylpiperidin-1-yl)methyl)benzyl)thio)-1-oxoisoindolin-2-yl)piperidine-2,6-dione] it is 0.03 ± 0.01 nM. To `O=C1CCC(N2Cc3c(SCc4ccc(CN5CCC6(CC5)CC6)cc4)cccc3C2=O)C(=O)N1` (stereo not shown) [SIAIS1227115, 3-(4-((4-((6-azaspiro[2.5]octan-6-yl)methyl)benzyl)thio)-1-oxoisoindolin-2-yl)piperidine-2,6-dione] belongs 0.04 ± 0.01 nM; to `CC1CC(C)CN(Cc2ccc(CSc3cccc4c3CN(C3CCC(=O)NC3=O)C4=O)cc2)C1` (stereo not shown) [SIAIS1227117, 3-(4-((4-((3,5-dimethylpiperidin-1-yl)methyl)benzyl)thio)-1-oxoisoindolin-2-yl)piperidine-2,6-dione], 0.2 ± 0.08 nM. The figure for `O=C1CCC(N2Cc3c(SCc4ccc(CN5CCC6(CCCCC6)CC5)cc4)cccc3C2=O)C(=O)N1` (stereo not shown) [SIAIS1227119, 3-(4-((4-((3-azaspiro[5.5]undecan-3-yl)methyl)benzyl)thio)-1-oxoisoindolin-2-yl)piperidine-2,6-dione] is 0.2 nM; for `O=C1CCC(N2Cc3c(SCc4cccc(CN5CCCCC5)c4)cccc3C2=O)C(=O)N1` (stereo not shown) [SIAIS1227131, 3-(1-oxo-4-((3-(piperidin-1-ylmethyl)benzyl)thio)isoindolin-2-yl)piperidine-2,6-dione] it is 0.89 ± 0.22 nM; for `O=C1CCC(N2Cc3c(SCc4cccc(CNC5CCCCC5)c4)cccc3C2=O)C(=O)N1` (stereo not shown) [SIAIS1227133, 3-(4-((3-((cyclohexylamino)methyl)benzyl)thio)-1-oxoisoindolin-2-yl)piperidine-2,6-dione] it is 0.13 ± 0.07 nM.

For the molecule `O=C1CCC(N2Cc3c(SCc4cccc(CNC56CC7CC(CC(C7)C5)C6)c4)cccc3C2=O)C(=O)N1` (stereo not shown) [SIAIS1227135, 3-(4-((3-(((adamantan-1-yl)amino)methyl)benzyl)thio)-1-oxoisoindolin-2-yl)piperidine-2,6-dione], the IC50 worked out at 0.03 ± 0.01 nM.

Turning to `O=C1CCC(N2Cc3c(SCc4cccc(CN5CCOCC5)c4)cccc3C2=O)C(=O)N1` (stereo not shown) [SIAIS1227137, 3-(4-((3-(morpholinomethyl)benzyl)thio)-1-oxoisoindolin-2-yl)piperidine-2,6-dione], the IC50 turned out to be 1.04 ± 0.49 nM. The figure for `O=C1CCC(N2Cc3c(SCc4cc(Br)c(CN5CCCCC5)cc4Br)cccc3C2=O)C(=O)N1` (stereo not shown) [SIAIS1227139, 3-(4-((2,5-dibromo-4-(piperidin-1-ylmethyl)benzyl)thio)-1-oxoisoindolin-2-yl)piperidine-2,6-dione] is 1.04 ± 0.21 nM; for `O=C1CCC(N2Cc3c(SCc4cc(Br)c(CNC5CCCCC5)cc4Br)cccc3C2=O)C(=O)N1` (stereo not shown) [SIAIS1227141, 3-(4-((2,5-dibromo-4-((cyclohexylamino)methyl)benzyl)thio)-1-oxoisoindolin-2-yl)piperidine-2,6-dione] it is 4.98 ± 0.99 nM; for `O=C1CCC(N2Cc3c(SCc4cc(Br)c(CNC56CC7CC(CC(C7)C5)C6)cc4Br)cccc3C2=O)C(=O)N1` (stereo not shown) [SIAIS1227143, 3-(4-((4-(((adamantan-1-yl)amino)methyl)-2,5-dibromobenzyl)thio)-1-oxoisoindolin-2-yl)piperidine-2,6-dione] it is 0.11 ± 0.17 nM. Consider `O=C1CCC(N2Cc3c(SCc4ccc(CCN5CCCCCCC5)cc4)cccc3C2=O)C(=O)N1` (stereo not shown) [SIAIS1227159, 3-(4-((4-(2-(azocan-1-yl)ethyl)benzyl)thio)-1-oxoisoindolin-2-yl)piperidine-2,6-dione], for which the IC50 came to 0.02 nM. The figure for `O=C1CCC(N2Cc3c(SCc4ccc(CCN5CCC(F)(F)CC5)cc4)cccc3C2=O)C(=O)N1` (stereo not shown) [SIAIS1227161, 3-(4-((4-(2-(4,4-difluoropiperidin-1-yl)ethyl)benzyl)thio)-1-oxoisoindolin-2-yl)piperidine-2,6-dione] is 0.025 nM; for `O=C1CCC(N2Cc3c(SCc4ccc(CCN5CCC6(CC5)CC6)cc4)cccc3C2=O)C(=O)N1` (stereo not shown) [SIAIS1227163, 3-(4-((4-(2-(6-azaspiro[2.5]octan-6-yl)ethyl)benzyl)thio)-1-oxoisoindolin-2-yl)piperidine-2,6-dione] it is 0.021 nM; for `CC1CC(C)CN(CCc2ccc(CSc3cccc4c3CN(C3CCC(=O)NC3=O)C4=O)cc2)C1` (stereo not shown) [SIAIS1227165, 3-(4-((4-(2-(3,5-dimethylpiperidin-1-yl)ethyl)benzyl)thio)-1-oxoisoindolin-2-yl)piperidine-2,6-dione] it is 0.023 nM. To `O=C1CCC(N2Cc3c(SCc4ccc(CN5CCC(F)(F)CC5)cc4)cccc3C2=O)C(=O)N1` (stereo not shown) [SIAIS1227167, 3-(4-((4-((4,4-difluoropiperidin-1-yl)methyl)benzyl)thio)-1-oxoisoindolin-2-yl)piperidine-2,6-dione] belongs 0.064 nM; to `CN1CCN(Cc2ccc(CSc3cccc4c3CN(C3CCC(=O)NC3=O)C4=O)cc2)CC1` (stereo not shown) [SIAIS1227169, 3-(4-((4-((4-methylpiperazin-1-yl)methyl)benzyl)thio)-1-oxoisoindolin-2-yl)piperidine-2,6-dione], 0.12 nM; to `O=C1CCC(N2Cc3c(SCc4ccc(CN5C[C@H]6CCCC[C@H]6C5)cc4)cccc3C2=O)C(=O)N1` (stereo partly drawn) [SIAIS1227171, 3-(4-((4-(((3aR,7aS)-octahydro-2H-isoindol-2-yl)methyl)benzyl)thio)-1-oxoisoindolin-2-yl)piperidine-2,6-dione], 0.021 nM. The figure for `C[C@@H](NCc1ccc(CSc2cccc3c2CN(C2CCC(=O)NC2=O)C3=O)cc1)C1CC1` (stereo partly drawn) [SIAIS1227173, 3-(4-((4-((((R)-1-cyclopropylethyl)amino)methyl)benzyl)thio)-1-oxoisoindolin-2-yl)piperidine-2,6-dione] is 0.095 nM; for `O=C1CCC(N2Cc3c(SCc4ccc(CN5CCCCC5)cc4F)cccc3C2=O)C(=O)N1` (stereo not shown) [SIAIS1227175, 3-(4-((2-fluoro-4-(piperidin-1-ylmethyl)benzyl)thio)-1-oxoisoindolin-2-yl)piperidine-2,6-dione] it is 0.073 nM; for `O=C1CCC(N2Cc3c(SCc4ccc(CNC5CCCCC5)cc4F)cccc3C2=O)C(=O)N1` (stereo not shown) [SIAIS1227177, 3-(4-((4-((cyclohexylamino)methyl)-2-fluorobenzyl)thio)-1-oxoisoindolin-2-yl)piperidine-2,6-dione] it is 0.097 nM. With `O=C1CCC(N2Cc3c(SCc4ccc(CNC56CC7CC(CC(C7)C5)C6)cc4F)cccc3C2=O)C(=O)N1` (stereo not shown) [SIAIS1227179, 3-(4-((4-(((adamantan-1-yl)amino)methyl)-2-fluorobenzyl)thio)-1-oxoisoindolin-2-yl)piperidine-2,6-dione], the IC50 amounted to 0.029 nM. Take `O=C1CCC(N2Cc3c(SCc4ccc(CN5CCOCC5)cc4F)cccc3C2=O)C(=O)N1` (stereo not shown) [SIAIS1227181, 3-(4-((2-fluoro-4-(morpholinomethyl)benzyl)thio)-1-oxoisoindolin-2-yl)piperidine-2,6-dione]: the IC50 came to 0.113 nM.

With `O=C1CCC(N2Cc3c(SCc4ccc(CNC(C5CC5)C5CC5)cc4)cccc3C2=O)C(=O)N1` (stereo not shown) [SIAIS1227183, 3-(4-((4-(((dicyclopropylmethyl)amino)methyl)benzyl)thio)-1-oxoisoindolin-2-yl)piperidine-2,6-dione], the IC50 was 0.039 nM. The figure for `O=C1CCC(N2Cc3c(SCc4ccc(CNC56CC7CC(CC5C7)C6)cc4)cccc3C2=O)C(=O)N1` (stereo not shown) [SIAIS1228019, 3-(4-((4-(((hexahydro-2,5-methanopentalen-3a(1H)-yl)amino)methyl)benzyl)thio)-1-oxoisoindolin-2-yl)piperidine-2,6-dione] is 0.051 nM; for `O=C1CCC(N2Cc3c(SCCCCCCCNC45CC6CC(CC4C6)C5)cccc3C2=O)C(=O)N1` (stereo not shown) [SIAIS1228055, 3-(4-((7-((hexahydro-2,5-methanopentalen-3a(1H)-yl)amino)heptyl)thio)-1-oxoisoindolin-2-yl)piperidine-2,6-dione] it is 0.028 nM. To `O=C1CCC(N2Cc3c(SCCCCCCCN[C@H]4C[C@H]5CC[C@@H]4C5)cccc3C2=O)C(=O)N1` (stereo partly drawn) [SIAIS1228059, 3-(4-((7-(((1R,2S,4S)-bicyclo[2.2.1]heptan-2-yl)amino)heptyl)thio)-1-oxoisoindolin-2-yl)piperidine-2,6-dione] belongs 0.037 nM.
